Test [1] deals with A. baumannii ATCC 17691. The conditions noted are these: cited from earlier work.
For test [2], the system named is Mtb. In words: anti-tuberculosis activity (whole cell). It is filed as cell-based, Mycobacterium tuberculosis.

The text below walks through data of patent US20190352691A1, “PATHOGEN DETECTION” (priority 2013, published 2019).

As to `N[C@@H](C(=O)N[C@@H]1C(=O)N2C(C(=O)O)=C(Cl)CC[C@H]12)c1ccccc1` [Lorabid], the “activity against Acinetobacter baumannii” value in test [1] is recorded as “not active”.
In the case of `C[C@@H]1CC[C@H]2[C@@H](C)C(=O)O[C@@H]3O[C@@]4(C)CC[C@@H]1[C@]32OO4` [artemisinin], the activity against tuberculosis result in test [2] is recorded as “not active”.
